Seven compounds from patent publication US6184374A, “Targeted cytotoxic anthracycline analogs” (priority 1998, dated 2001) can be followed below.

Several values for one entry are separate records, joined by “and”; a condition that tells them apart may be missing. Equal entries are not always repeated. Where two headings read alike, the source gives them in different places.

The test system of data set [1] is MCF-7 human mammary carcinoma cell line. In kind it is cell-based. The text has this:
(§1) MXT estrogen-independen mouse mammary carcinoma cell line was obtained from Dr. Gunter Berndhart, University of Regensburg, Germany. All the other cell lines used in the determination of the antiproliferative activity of the compounds of this invention were obtained from the American Type Culture Collection (ATCC).
(§2) For the evaluation of the activity of the analogs, a colorimetric cytotoxicity assay in microtitration plates was used based on quantification of biomass by staining cells with crystal violet, which correlates very well with determination of cell numbers. (Reile et al.; Anal. Biochem. 187, 262-267, 1990; Bernhardt G. et al, J. Cancer Res. Clin. Oncol. (1992), 118, 35-43; Spruss Th. et al, J. Cancer Res. Clin. Oncol 117, 435-443, 1991; Gillies, R. J., Anal. Biochem. 159, 109-113, 1986; Kueng, W. et al.; Anal. Biochem., 182 16-19, 1989.)
(§3) One to two days after seeding cells in 96-well plates the culture medium is exchanged with fresh medium containing the compounds to be tested and fresh medium only for the control cultures. After varying time of incubation, cells are fixed with glutaric dialdehyde and stored under […] at 4° C. until the end of the experiment. Cells are stained with crystal violet and bound stain is extracted with 70% aqueous EtOH. Optical density is measured with EIA Reader (Bio-Tek Instruments) or Biomek 1000 (Beckman) at 590 nm or 600 nm, respectively. Each data point represents the mean value of eight culture wells. T/C values are calculated as T/C=(T-C0)/(C-C0) where T=optical density of treated cultures, C=optical density of control (untreated) cultures, C0 =optical density of cultures at the start of incubation (t=0).
Cells were incubated in IMEM media containing 5% Hl:DCC-FBS (heat inactivated dextran coated charcoal treated fetal bovine serum) on 96 well plates. Relative cell number in treated and control plates was determined by the crystal violet staining method and was expressed as T/C values where T/C=T-C0 /C-C0×100 [T=absorbance of treated cultures, C= absorbance of control cultures, C0 =absorbance of cultures at the start of incubation (t=0). The measured absorbance is proportionate to the cell number.]

Data set [2] has as its system estrogen independent MXT mouse mammary cancers. Description: Treatment of estrogen independent MXT mouse mammary cancers (KS-49). In kind it is in vivo. The text has this: In order to compare the tumor inhibitory activity of cytotoxic doxorubicin derivative, Q6 and its targeted cytotoxic peptide conjugate, Q6^14 gL as well as the well known antineoplastic agent, DOX and to determine the optimal way of administration and the nontoxic doses, LH-RH receptor positive MXT (3.2) ovex tumor pieces (1 mm^3) were implanted s. c. in female B6 D2 F1 mice. One day after transplantation the mice were randomly divided into groups of five animals and the treatment started. The compounds were dissolved in 0.1% trifluoroacetic acid (pH 2) and given intraperitoneally.

The test system of data set [3] is MXT estrogen independent mouse mammary carcinoma cell line. Description: In vitro cytotoxic activity, crystal violet colorimetric assay on MXT. In kind it is cell-based.
Excerpt: as §1, §2, §3

[4] abbreviates: Table 17-1; 3 × 10^-8 M; incubation 70 hr.
Setting [5] is: Table 17-1; 3 × 10^-8 M; incubation 120 hr.
Setting [6] is: Table 17-1; 3 × 10^-9 M; incubation 70 hr.
Where [7] appears, read: Table 17-1; 3 × 10^-9 M; incubation 120 hr.
[8] abbreviates: Table 17-1; 10^-8 M; incubation 70 hr.
Where [9] appears, read: Table 17-1; 10^-8 M; incubation 120 hr.
Setting [10] is: Table 17-1; 3 × 10^-10 M; incubation 70 hr.
[11] abbreviates: Table 17-1; 3 × 10^-10 M; incubation 120 hr.
[12] abbreviates: Table 17-1; 10^-9 M; incubation 70 hr.
The mark [13] stands for this setting: Table 17-1; 10^-9 M; incubation 120 hr.

For `COc1cccc2c1C(=O)c1c(O)c3c(c(O)c1C2=O)C[C@@](O)(C(=O)CO)C[C@@H]3O[C@H]1C[C@H](N2CCCCC2)[C@H](O)[C@H](C)O1` [AN-183, Piperidino-DOX], the “T/C Value” stood at 4 in data set [1] (setting [4]); 0 in data set [1] (setting [5]); 114 in data set [1] (setting [6]); 109 in data set [1] (setting [7]); 70 in data set [1] (setting [8]); 67 in data set [1] (setting [9]).

For `COc1cccc2c1C(=O)c1c(O)c3c(c(O)c1C2=O)C[C@@](O)(C(=O)CO)C[C@@H]3O[C@H]1C[C@H](N2Cc3ccccc3C2)[C@H](O)[C@H](C)O1.O=C(O)C(F)(F)F` [Compound Q3, 3'-deamino-3'-(isoindoline-2"-yl)doxorubicin], the “T/C Value” was -11 in data set [1] (Table 17-1, 10^-8 M; incubation 70 hr); -29 in data set [1] (Table 17-1, 10^-8 M; incubation 120 hr); 86 in data set [1] (setting [4]); 77 in data set [1] (setting [5]); 118 in data set [1] (setting [8]); 108 in data set [1] (setting [9]).

Consider `COc1cccc2c1C(=O)c1c(O)c3c(c(O)c1C2=O)C[C@@](O)(C(=O)CO)C[C@@H]3O[C@H]1C[C@H](N2CC=CC2)[C@H](O)[C@H](C)O1.O=C(O)C(F)(F)F` [Compound Q4, 3'-deamino-3'-(3"-pyrroline-1"-yl)doxorubicin], for which the “T/C Value” in data set [1] (setting [5]) is -5; in data set [1] (setting [6]), 106; in data set [1] (setting [7]), 97; in data set [1] (setting [8]), 72; in data set [1] (setting [9]) it was 65.

As for `COc1cccc2c1C(=O)c1c(O)c3c(c(O)c1C2=O)C[C@@](O)(C(=O)CO)C[C@@H]3O[C@H]1C[C@H](N2CCC(=O)C2)[C@H](O)[C@H](C)O1.O=C(O)C(F)(F)F` [Compound Q5, 3'-deamino-3'-(3"-pyrrolidone-1"-yl) doxorubicin], the “T/C Value” in data set [1] (setting [4]) is given as -28; in data set [1] (setting [5]) it was -10; in data set [1] (setting [6]) it was 87; in data set [1] (setting [7]), 67; in data set [1] (setting [8]) it was 30; in data set [1] (setting [9]), 25.

Turning to `COc1cccc2c1C(=O)c1c(O)c3c(c(O)c1C2=O)C[C@@](O)(C(=O)CO)C[C@@H]3OC1CC(N2C=CCC2)C(O)C(C)O1` (some centres unmarked) [Compound Q6, 3'-deamino-3'-(2"-pyrroline-1"-yl)doxorubicin], the Average survival was 13.0 days in data set [2] (0.2 nmol/inj. i.p., total 21 nmol (Groups 5 and 9)); 19.6 days in data set [2] (0.5 nmol/inj. i.p., 5 inj./week, total 7.5 nmol (Groups 3 and 7)); 17.4 days and 17.5 days in data set [2] (1.25 nmol/inj. i.p., 2 inj./week, day 1, 2, 7 and 8 (Groups 2 and 6)); 14.6 days in data set [2] (0.25 * nmol/inj. i.p. (dose raised day 9 to 12), total 9.5 nmol (Groups 4 and 8)). Besides, in data set [2] (1.25 nmol on day 1, 2, 7 and 8), the Toxicity entry is on record as “strong toxicity”. Also, the “Average final tumor volume” value in data set [2] (Group 2, 1.25 nmol on day 1, 2, 7 and 8, at day 16) is on record as 1065 mm^3. Also, the “T/C Value” in data set [1] (setting [6]) is given as -18; in data set [1] (setting [7]), -9; in data set [1] (setting [10]) it was 50; in data set [1] (setting [11]) it was 26; in data set [1] (setting [12]), -3; in data set [1] (setting [13]), 2. For the same compound, the “T/C Value on MCF-7 Cell Line” value in data set [1] (Table 18-1; 3 × 10^-9 M; 70 hr) was -18; in data set [1] (Table 18-1; 3 × 10^-9 M; 120 hr), -9; in data set [1] (Table 18-1; 10^-9 M; 70 hr) it was -3; in data set [1] (Table 18-1; 10^-9 M; 120 hr), 2; in data set [1] (Table 18-1; 10^-10 M (by column position); 70 hr) it was 50; in data set [1] (Table 18-1; 10^-10 M (by column position); 120 hr), 26. Moreover, the “T/C value on MXT cell line” value was 90 in data set [3] (3 × 1^-11 M (so in the source), 28 hr); 52 in data set [3] (3 × 1^-11 M (so in the source), 69 hr); 56 in data set [3] (3 × 10^-10 M, 28 hr); -13 in data set [3] (3 × 10^-10 M, 69 hr); 78 in data set [3] (10^-10 M, 28 hr); 6 in data set [3] (10^-10 M, 69 hr).

On to `COc1cccc2c1C(=O)c1c(O)c3c(c(O)c1C2=O)C[C@@](O)(C(=O)CO)C[C@@H]3O[C@H]1C[C@H](N2CCCC(=O)C2)[C@H](O)[C@H](C)O1.O=C(O)C(F)(F)F` [Compound Q7, 3'-deamino-3'-(3"-piperidone-1"-yl) doxorubicin], for which the “T/C Value” stood at 59 in data set [1] (setting [4]); 43 in data set [1] (setting [5]); 96 in data set [1] (setting [6]); 97 in data set [1] (setting [7]); 80 in data set [1] (setting [8]); 70 in data set [1] (setting [9]).

As to `COc1cccc2c1C(=O)c1c(O)c3c(c(O)c1C2=O)C[C@@](O)(C(=O)CO)C[C@@H]3O[C@H]1C[C@H](N2C=CCCC2)[C@H](O)[C@H](C)O1.O=C(O)C(F)(F)F` [Compound Q8, 3'-deamino-3'-(1",3"-tetrahydropyridine-1"-yl)doxorubicin], the “T/C Value” in data set [1] (setting [6]) is 69; in data set [1] (setting [7]), 62; in data set [1] (setting [10]), 96; in data set [1] (setting [11]), 99; in data set [1] (setting [12]), 88; in data set [1] (setting [13]) it was 93.
